Like-named read-outs stand apart in the source and are kept apart here.
Key:
wildtype LRRK2 = biological target: T1, wildtype LRRK2 (Homo sapiens, UniProt Q5S007); assay: LRRK2 degradation assay, HiBit-tagged wildtype LRRK2 expressed from plasmid in HEK293 cells (Nano-Glo Dual-Luciferase); type: cell-based; settings: 24 hours; for Dmax: read-out: **WT Dmax (%); for DC50: read-out: *WT DC50
T1 construct: expressed in transfected cells; host or cells: HEK293 (ATCC CRL-1573), transient transfection, mammalian expression vector with ubiquitin promoter
Source text: (§1) Exemplary Assay for Testing LRRK2 Degradation Driven by Exemplary Hetero-Bifunctional Compounds Designed to Target LRRK2
(§2) The assay measures the degradation of wildtype and G2019S LRRK2 tagged with a HiBit tag on the C-terminus of the protein that was expressed from a mammalian expression vector, driven by the ubiquitin promoter in HEK293 cells. Each compound dose-response was repeated on two separate days, on three separate plates each day.
(§3) Plasmid Preparation. Transfection mixes were assembled as follows and incubated for 30 minutes at room temperature. In a 15 mL tube, 5.25 mL Opti-MEM (no additions) was mixed with 17 μL Firefly Luciferase plasmid at 1 μg/μL and 158 μL WT plasmid DNA at 1 μg/μL (175 μg total DNA) were mixed by flicking. In a new 15 mL tube, 5.25 mL OptiMEM was mixed with 17 μL Firefly Luciferase plasmid at 1 μg/μL and 158 μL G2019S plasmid DNA at 1 μg/μL (175 μg total DNA) were mixed by flicking. X-tremeGene HP was mixed thoroughly using a vortex. Next, 175 μL was added to each tube and flicked to mix. Both tubes were left to incubate for 30 minutes at room temperature.
(§4) While the transfection mixes were incubating, HEK293 cells (acquired from ATCC; ATCC CRL-1573) were harvested with trypsin. Once cells are detached, the cells were resuspended in 12 mL OptiMEM+5% FBS and transferred to a 50 mL tube. The cells were mixed well and counted. Using OptiMEM+5% FBS, the cells were diluted in two 250 mL conical tubes at 0.71×10^6 cells/mL in 70 mL. One tube was labeled “WT” and the other “G2019S”. The WT and G2019S transfection mixes were added dropwise to the corresponding 250 mL tubes. The tubes were mixed first by pipetting then by swirling. The tubes were incubated at room temperature for at least 5 minutes.
(§5) Each tube was swirled before dispensing and after every three plates. Seventy microliters of cells were dispensed with WT or G2019S DNA to seven plates each. Three plates of each were tested with compound plate one (preparation described below) and three plates of each were tested with compound plate two (preparation described below). The first plate from each set served as a “prime” plate and was not used to test compounds. Each plate was incubated in the hood for 10 minutes before placing in the 37° C. incubator for 24 hours.
(§6) Preparation of Compound and Assay Plates. Two compound plates were made using 96 well polypropylene plates. Compounds were made up at 10 mM and were diluted to 1 mM in 30 μL. Each dose response curve included a well of DMSO, as a negative control and for normalization, and a well of 0.5 μM of Compound 4 as a positive control. In addition to seven test compounds, each plate also included a dose response of Compound 4. The compound plates were spun down along at 1200 rpm for 2 minutes.
(§7) The two compound plates were then mixed and 2 μL was diluted in intermediate plates having 248 μL of Opti-Mem in each well. Next, 10 μL diluted compounds from the intermediate plates were added to each test plate (three WT and three G2019S plates per compound plate for a total of 12 assay plates). The plates were incubated for 24 hours at 37° C.
(§8) All assay plates and all Nano-Glo Dual-Luciferase Reporter Assay System components (except for the DLR substrate) were equilibrated to room temperature. Next, the luciferase buffer was mixed with the lyophilized amber bottle until fully dissolved, and 75 μL of the luciferase mixture was added to each well of each assay plate. The assay plates were incubated for 10 minutes at room temperature with shaking for at least 5 minutes, and then read on a plate reader.
(§9) Developing Plates and Analyzing Data. One milliliter of DLR substrate and 1 mL LgBiT Protein were added to the Stop and Glo buffer, and 75 μL of the mixture was added to each well of each plate. Optically clear seals were added to each plate and each plate was incubated for 20 minutes with shaking for at least 10 minutes, and then read on a plate reader. […]

G2019S LRRK2 = biological target: T2, G2019S LRRK2 (Homo sapiens, UniProt Q5S007, G2019S); assay: LRRK2 degradation assay, HiBit-tagged G2019S LRRK2 expressed from plasmid in HEK293 cells (Nano-Glo Dual-Luciferase); type: cell-based; settings: 24 hours
T2 construct: expressed in transfected cells; host or cells: HEK293 (ATCC CRL-1573), transient transfection, mammalian expression vector with ubiquitin promoter
Source text: as §1, §2, §3, §4, §5, §6, §7, §8, §9

[1] = HiBit-tagged wildtype LRRK2 in HEK293 cells
[2] = HiBit-tagged G2019S LRRK2 in HEK293 cells
[3] = HiBit-tagged wildtype LRRK2, HEK293 cells
[4] = HiBit-tagged G2019S LRRK2, HEK293 cells

T1 sequence (Q5S007 whole entry): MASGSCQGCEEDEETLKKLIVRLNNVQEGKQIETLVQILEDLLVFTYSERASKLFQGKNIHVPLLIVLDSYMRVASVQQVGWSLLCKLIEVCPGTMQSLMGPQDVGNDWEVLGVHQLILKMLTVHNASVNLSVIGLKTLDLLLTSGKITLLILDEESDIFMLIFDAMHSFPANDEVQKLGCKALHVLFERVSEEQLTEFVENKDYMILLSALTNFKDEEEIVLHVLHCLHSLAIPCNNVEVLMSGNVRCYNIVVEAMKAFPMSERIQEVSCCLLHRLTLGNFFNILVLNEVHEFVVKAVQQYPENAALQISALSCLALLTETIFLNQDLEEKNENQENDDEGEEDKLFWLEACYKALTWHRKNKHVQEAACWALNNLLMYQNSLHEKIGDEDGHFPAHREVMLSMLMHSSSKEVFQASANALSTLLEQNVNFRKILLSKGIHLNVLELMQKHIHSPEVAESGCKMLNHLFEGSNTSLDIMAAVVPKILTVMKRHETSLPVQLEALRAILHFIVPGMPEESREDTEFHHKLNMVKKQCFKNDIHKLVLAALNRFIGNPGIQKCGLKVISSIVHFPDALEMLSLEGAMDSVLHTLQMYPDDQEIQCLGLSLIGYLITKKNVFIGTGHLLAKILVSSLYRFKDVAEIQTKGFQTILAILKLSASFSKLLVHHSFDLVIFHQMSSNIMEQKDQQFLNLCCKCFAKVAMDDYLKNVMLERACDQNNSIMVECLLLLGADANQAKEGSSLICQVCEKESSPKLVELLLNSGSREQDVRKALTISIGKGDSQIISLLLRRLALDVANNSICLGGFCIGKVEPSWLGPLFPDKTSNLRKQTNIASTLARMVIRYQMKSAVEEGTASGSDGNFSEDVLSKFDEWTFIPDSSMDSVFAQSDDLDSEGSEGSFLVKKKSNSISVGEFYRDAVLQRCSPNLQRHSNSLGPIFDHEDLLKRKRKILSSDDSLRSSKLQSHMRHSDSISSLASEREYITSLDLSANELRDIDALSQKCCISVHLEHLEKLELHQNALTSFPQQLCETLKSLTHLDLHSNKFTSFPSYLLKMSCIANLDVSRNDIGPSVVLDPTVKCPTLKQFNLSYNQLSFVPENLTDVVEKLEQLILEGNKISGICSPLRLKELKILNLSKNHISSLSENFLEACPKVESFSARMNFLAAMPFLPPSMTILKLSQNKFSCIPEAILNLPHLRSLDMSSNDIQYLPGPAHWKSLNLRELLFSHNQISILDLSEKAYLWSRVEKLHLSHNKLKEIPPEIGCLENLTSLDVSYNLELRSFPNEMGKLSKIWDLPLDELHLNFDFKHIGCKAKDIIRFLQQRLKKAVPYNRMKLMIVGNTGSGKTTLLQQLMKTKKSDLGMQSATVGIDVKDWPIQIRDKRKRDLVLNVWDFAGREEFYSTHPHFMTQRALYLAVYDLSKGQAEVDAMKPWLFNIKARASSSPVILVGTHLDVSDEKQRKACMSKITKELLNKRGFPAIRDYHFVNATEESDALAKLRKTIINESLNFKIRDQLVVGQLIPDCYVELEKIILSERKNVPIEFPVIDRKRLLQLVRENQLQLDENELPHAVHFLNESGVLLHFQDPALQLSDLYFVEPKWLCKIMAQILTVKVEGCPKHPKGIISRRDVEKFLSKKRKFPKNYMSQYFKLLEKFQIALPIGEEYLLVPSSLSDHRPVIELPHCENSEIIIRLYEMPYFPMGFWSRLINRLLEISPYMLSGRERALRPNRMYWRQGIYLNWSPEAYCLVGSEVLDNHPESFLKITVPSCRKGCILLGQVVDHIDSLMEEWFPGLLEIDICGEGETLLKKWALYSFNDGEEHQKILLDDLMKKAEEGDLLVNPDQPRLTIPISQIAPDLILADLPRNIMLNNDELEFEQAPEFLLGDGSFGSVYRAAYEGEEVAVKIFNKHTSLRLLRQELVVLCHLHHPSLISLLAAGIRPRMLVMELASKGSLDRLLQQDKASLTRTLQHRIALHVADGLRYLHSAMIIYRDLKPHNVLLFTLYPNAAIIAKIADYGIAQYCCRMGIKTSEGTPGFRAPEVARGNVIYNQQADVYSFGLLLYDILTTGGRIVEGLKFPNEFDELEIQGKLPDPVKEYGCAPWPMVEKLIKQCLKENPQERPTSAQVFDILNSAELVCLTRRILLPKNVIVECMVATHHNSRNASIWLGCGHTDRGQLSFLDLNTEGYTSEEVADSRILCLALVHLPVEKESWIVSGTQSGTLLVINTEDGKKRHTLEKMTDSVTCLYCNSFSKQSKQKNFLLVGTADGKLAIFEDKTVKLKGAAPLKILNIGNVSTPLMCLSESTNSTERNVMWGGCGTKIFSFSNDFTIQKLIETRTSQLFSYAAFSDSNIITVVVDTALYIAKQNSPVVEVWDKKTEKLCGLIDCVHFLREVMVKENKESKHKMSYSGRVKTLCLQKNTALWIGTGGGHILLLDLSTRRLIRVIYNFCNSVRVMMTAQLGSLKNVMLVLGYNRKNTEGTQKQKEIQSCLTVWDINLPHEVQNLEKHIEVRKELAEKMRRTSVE
T2 sequence (Q5S007 whole entry G2019S): as the sequence (Q5S007 whole entry) above, with G2019S counted along it

`CC1(Oc2ccc3[nH]nc(-c4cc(N5CCN(CC(F)(F)C6CCN(CC7CCN(c8ccc9c(c8)C(=O)N(C8CCC(=O)NC8=O)C9=O)CC7)CC6)CC5)ncn4)c3c2)CC1` (stereo not shown) [Compound 53, 5-[4-[[4-[1,1-difluoro-2-[4-[6-[5-(1-methylcyclopropoxy)-1H-indazol-3-yl]pyrimidin-4-yl]piperazin-1-yl]ethyl]-1-piperidyl]methyl]-1-piperidyl]-2-(2,6-dioxo-3-piperidyl)isoindoline-1,3-dione] was tested, and the Dmax (wildtype LRRK2; [1]) was 50 to 70%, the DC50 (wildtype LRRK2; [1]) was < 10 nM and the DC50 (G2019S LRRK2; [2]) was < 10 nM. For the same compound, the Dmax (G2019S LRRK2; [2]) was 50 to 70%.
In the case of `C[C@H]1CN(c2cc(-c3n[nH]c4ccc(OC5(C)CC5)cc34)ncn2)CCN1CCN1CCN(C(=O)C2CCN(c3ccc4c(c3)C(=O)N(C3CCC(=O)NC3=O)C4=O)CC2)CC1` (stereo partly drawn) [Compound 56, 2-(2,6-dioxo-3-piperidyl)-5-[4-[4-[2-[(2S)-2-methyl-4-[6-[5-(1-methylcyclopropoxy)-2H-indazol-3-yl]pyrimidin-4-yl]piperazin-1-yl]ethyl]piperazine-1-carbonyl]-1-piperidyl]isoindoline-1,3-dione], the Dmax (wildtype LRRK2; [1]) is reported as ≥ 70%, the DC50 (wildtype LRRK2; [1]) is reported as < 10 nM and the DC50 (G2019S LRRK2; [2]) is reported as < 10 nM. The Dmax (G2019S LRRK2; [2]) was ≥ 70%.
In the case of `CC1(Oc2ccc3[nH]nc(-c4cc(N5CCO[C@@H](CCN6CCN(CC7CCN(c8ccc9c(c8)C(=O)N(C8CCC(=O)NC8=O)C9=O)CC7)CC6)C5)ncn4)c3c2)CC1` (single isomer, unassigned) [Compound 154], the Dmax (wildtype LRRK2; [3]) is reported as 50 to 70%, the DC50 (wildtype LRRK2; [3]) is reported as < 10 nM and the DC50 (G2019S LRRK2; [4]) is reported as < 10 nM. It also gave a Dmax (G2019S LRRK2; [4]) of 50 to 70%.
For `C[C@H]1CN(c2cc(-c3n[nH]c4ccc(OC5(C)CC5)cc34)ncn2)CCN1CC1CCN(CCCNc2cccc3c2C(=O)N(C2CCC(=O)NC2=O)C3=O)CC1` (stereo partly drawn) [Compound 140, 2-(2,6-dioxo-3-piperidyl)-4-[3-[4-[[(2S)-2-methyl-4-[6-[5-(1-methylcyclopropoxy)-2H-indazol-3-yl]pyrimidin-4-yl]piperazin-1-yl]methyl]-1-piperidyl]propylamino]isoindoline-1,3-dione], the Dmax (wildtype LRRK2; [1]) was < 50%, the DC50 (wildtype LRRK2; [1]) was < 10 nM and the DC50 (G2019S LRRK2; [2]) was < 10 nM. The Dmax (G2019S LRRK2; [2]) was < 50%.
For `CC1(Oc2ccc3[nH]nc(-c4cc(N5C[C@@H]6[C@@H](CN7CCN(CC8CCN(c9ccc%10c(c9)C(=O)N(C9CCC(=O)NC9=O)C%10=O)CC8)CC7)[C@@H]6C5)ncn4)c3c2)CC1` (stereo partly shown) [Compound 75, 2-(2,6-dioxopiperidin-3-yl)-5-{4-[(4-{[(1r,5s,6s)-3-{6-[5-(1-methylcyclopropoxy)-1H-indazol-3-yl]pyrimidin-4-yl}-3-azabicyclo[3.1.0]hexan-6-yl]methyl}piperazin-1-yl)methyl]piperidin-1-yl}-2,3-dihydro-1H-isoindole-1,3-dione], the Dmax (wildtype LRRK2; [1]) was ≥ 70%, the DC50 (wildtype LRRK2; [1]) was < 10 nM and the DC50 (G2019S LRRK2; [2]) was < 10 nM. For the same compound, the Dmax (G2019S LRRK2; [2]) was ≥ 70%.
In the case of `CC1(Oc2ccc3[nH]nc(-c4ccnc(N5CCN(C[C@H]6CC[C@H](CN7CCN(c8ccc9c(c8)C(=O)N(C8CCC(=O)NC8=O)C9=O)CC7)CC6)CC5)c4)c3c2)CC1` (stereo partly shown) [Compound 102, 2-(2,6-dioxopiperidin-3-yl)-5-(4-{[(1r,4r)-4-[(4-{4-[5-(1-methylcyclopropoxy)-1H-indazol-3-yl]pyridin-2-yl}piperazin-1-yl)methyl]cyclohexyl]methyl}piperazin-1-yl)-2,3-dihydro-1H-isoindole-1,3-dione], the Dmax (wildtype LRRK2; [1]) is reported as < 50%, the DC50 (wildtype LRRK2; [1]) is reported as 10 to 50 nM and the DC50 (G2019S LRRK2; [2]) is reported as 10 to 50 nM. The Dmax (G2019S LRRK2; [2]) was < 50%.
With `CC1(Oc2ccc3[nH]nc(-c4ccnc(N5CCC(C(=O)N6CCC(CC7CCN(c8ccc9c(c8)C(=O)N(C8CCC(=O)NC8=O)C9=O)CC7)CC6)CC5)c4)c3c2)CC1` (stereo not shown) [Compound 89, 2-(2,6-dioxopiperidin-3-yl)-5-(4-{[1-(1-{4-[5-(1-methylcyclopropoxy)-1H-indazol-3-yl]pyridin-2-yl}piperidine-4-carbonyl)piperidin-4-yl]methyl}piperidin-1-yl)-2,3-dihydro-1H-isoindole-1,3-dione] the Dmax (wildtype LRRK2; [1]) was < 50%, the DC50 (wildtype LRRK2; [1]) was 10 to 50 nM and the DC50 (G2019S LRRK2; [2]) was 10 to 50 nM. The Dmax (G2019S LRRK2; [2]) was < 50%.
For `CC1(Oc2ccc3[nH]nc(-c4cc(N5CCO[C@@H](CN6CCN(CC7CCN(c8ccc9c(c8)C(=O)N(C8CCC(=O)NC8=O)C9=O)CC7)CC6)C5)ncn4)c3c2)CC1` (stereo partly drawn) [Compound 153, 2-(2,6-dioxopiperidin-3-yl)-5-{4-[(4-{[(2S)-4-{6-[5-(1-methylcyclopropoxy)-1H-indazol-3-yl]pyrimidin-4-yl}morpholin-2-yl]methyl}piperazin-1-yl)methyl]piperidin-1-yl}-2,3-dihydro-1H-isoindole-1,3-dione], the Dmax (wildtype LRRK2; [3]) was < 50%, the DC50 (wildtype LRRK2; [3]) was < 10 nM and the DC50 (G2019S LRRK2; [4]) was < 10 nM. The Dmax (G2019S LRRK2; [4]) was < 50%.
For `CC1(Oc2ccc3n[nH]c(-c4cc(N5CCC(Cc6cccc(CC7CCN(c8ccc9c(c8)C(=O)N(C8CCC(=O)NC8=O)C9=O)CC7)c6)CC5)ncn4)c3c2)CC1` (stereo not shown) [Compound 174, 2-(2,6-dioxo-3-piperidyl)-5-[4-[[3-[[1-[6-[5-(1-methylcyclopropoxy)-2H-indazol-3-yl]pyrimidin-4-yl]-4-piperidyl]methyl]phenyl]methyl]-1-piperidyl]isoindoline-1,3-dione], the DC50 (wildtype LRRK2; [3]) was ≥ 100 nM and the DC50 (G2019S LRRK2; [4]) was ≥ 100 nM.
With `C[C@H]1CN(c2cc(-c3n[nH]c4cc(F)c(OC5(C)CC5)cc34)ncn2)CCN1CC1(F)CCN(CC2CCN(c3ccc4c(c3)C(=O)N(C3CCC(=O)NC3=O)C4=O)CC2)CC1` (stereo partly drawn) [Compound 106, 2-(2,6-dioxo-3-piperidyl)-5-[4-[[4-fluoro-4-[[(2S)-4-[6-[6-fluoro-5-(1-methylcyclopropoxy)-1H-indazol-3-yl]pyrimidin-4-yl]-2-methyl-piperazin-1-yl]methyl]-1-piperidyl]methyl]-1-piperidyl]isoindoline-1,3-dione] the Dmax (wildtype LRRK2; [1]) was < 50%, the DC50 (wildtype LRRK2; [1]) was < 10 nM and the DC50 (G2019S LRRK2; [2]) was < 10 nM. For the same compound, the Dmax (G2019S LRRK2; [2]) was < 50%.
`CC1(Oc2ccc3n[nH]c(-c4cc(N5CCN(Cc6ccc(CN7CCN(c8ccc9c(c8)C(=O)N(C8CCC(=O)NC8=O)C9=O)CC7)nn6)CC5)ncn4)c3c2)CC1` (stereo not shown) [Compound 172, 2-(2,6-dioxo-3-piperidyl)-5-[4-[[6-[[4-[6-[5-(1-methylcyclopropoxy)-2H-indazol-3-yl]pyrimidin-4-yl]piperazin-1-yl]methyl]pyridazin-3-yl]methyl]piperazin-1-yl]isoindoline-1,3-dione] was tested, and the Dmax (wildtype LRRK2; [3]) was 50 to 70%, the DC50 (wildtype LRRK2; [3]) was < 10 nM and the DC50 (G2019S LRRK2; [4]) was < 10 nM. It also gave a Dmax (G2019S LRRK2; [4]) of 50 to 70%.
With `CC1(Oc2ccc3[nH]nc(-c4cc(N5CCO[C@H](CN6CCN(CC7CCN(c8ccc9c(c8)C(=O)N(C8CCC(=O)NC8=O)C9=O)CC7)CC6)C5)ncn4)c3c2)CC1` (stereo partly drawn) [Compound 152, 2-(2,6-dioxo-3-piperidyl)-5-[4-[[4-[[(2R)-4-[6-[5-(1-methylcyclopropoxy)-1H-indazol-3-yl]pyrimidin-4-yl]morpholin-2-yl]methyl]piperazin-1-yl]methyl]-1-piperidyl]isoindoline-1,3-dione] the Dmax (wildtype LRRK2; [3]) was < 50%, the DC50 (wildtype LRRK2; [3]) was < 10 nM and the DC50 (G2019S LRRK2; [4]) was < 10 nM. For the same compound, the Dmax (G2019S LRRK2; [4]) was < 50%.

— patent US12559506B2, “Indazole based compounds and associated methods of use” (Arvinas Operations, Inc., priority 2021, dated 2026)
